Experimental data: patent publication US6492531B1, “Method of treating cognitive disorders” (Warner-Lambert Company, priority 1992, dated 2002)

Legend:
[1] = system: mice; test: mouse light/dark box habituation test; type: in vivo; details: 0.25 mg/kg
Protocol: (§1) A test carried out using the mouse light/dark box and the rat T-maze reinforced alternation task.
On repeated exposure to the light/dark box mice habituate by moving more rapidly from the light to the dark side. The habituation occurs over a 4 to 6 day period, with a reduction in latency of movement from about 14 sec to 2 to 4 sec by the 4th day of the test.
The compounds was administered at a dose of 0.00001 mg/kg SC once daily.
The days (1-6) are along the X axis and the time in seconds is along the Y axis (latency white to black) and Day 6 scopolamine was 0.25.
∘ p <0.001 indicates improved habituation, comparison is with 1 day.
* p <0.05 to p <0.001 is improved performance, compared to control.
+ p <0.001 is scopolamine impairment.
Δ p <0.001 is inhibition of scopolamine impairment.

[2] = system: rat; test: rat T-maze reinforced alternation task; type: in vivo; details: twice daily 0.25 mg/kg
Protocol: as §1
The X axis is the day and the Y axis is the percent correct responses.
The number of mice tested was six.
⬭ - - - ⬭ is the control vehicle.
⬬ - - - ⬬ is scopolamine at 0.25 mg/kg IP BID.

`CN1[C@@H]2C[C@@H](OC(=O)[C@H](CO)c3ccccc3)C[C@H]1[C@@H]1O[C@@H]12` [scopolamine] was tested. Which “effect of scopolamine on habituation performance” value [1] did it give?
The value was “impairment of performance”.

What about the “effect of scopolamine on task performance” value [2] of the same molecule?
The value was “deficit”.
